Results on 13 compounds are retold here after US5840918A, “Isoprenyl transferase inhibitors” (Eisai Co., Ltd., priority 1997, dated 1998).

pIC50: −log10 of the molar value. Entries after “also recorded” stand apart in the source; their conditions may differ.

In test [1] the test system is zH1 (H-ras-transformed NIH/3T3 mouse fibroblast). Kind of test: Inhibition of anchorage-independent tumor cell growth, zH1. It counts as cell-based. Particulars: NIH3T3, 336 h, zH1, 14 days, soft agar. How it is done:
(§1) HT1080 is a […] with a N-ras mutation. MIApaca-2 is a pancreatic carcinoma and Sw620 is a colonic carcinoma; each of these has a K-ras mutation. T24 is a bladder carcinoma with a H-ras mutation; and zH1 is a H-ras-transformed NIH/3T3 mouse fibroblast. Additional compounds have been tested and have yielded positive results in these organ-specific or ras-protein specific anchorage-independent tumor cell models.
(§2) Five tumor cell lines were seeded at 600 cells/well (12-well plates) in 0.6 mL of 0.3% Noble agar in culture medium over a bottom agar layer (0.5% Noble agar in culture medium). The culture medium was Dulbecco's modified Eagle's medium (Nissui Pharmaceutical Co., Ltd., Tokyo, Japan), supplemented with 10% heat-inactivated calf serum (GIBCO, Grand Island, N.Y.). A 10 mM stock solution of inhibitor compound PD331 in DMSO was diluted with culture medium to 3× the final concentration and 0.6 mL of the diluted inhibitor solution was overlayed on each well. Controls contained the same amount of DMSO as inhibitor samples. Plates were incubated at 37° C. in 5% CO2 for 14 days. Colonies were counted by replacement of the overlaying medium with 0.6 mL of 2 mg/mL MTT in PBS, incubation for 30 min, and quantitation of scanned photographs. IC50 concentrations for each cell line are shown below in Table 3.

A further test has as its system MIApaca-2. As to the kind of experiment: Inhibition of anchorage-independent tumor cell growth, MIApaca-2. It counts as cell-based. The following applies: Homo sapiens, MIA PaCa-2, 336 h; MIApaca-2, 14 days, soft agar. How it is done:
as §1, §2

Another test relates to HT1080. Kind of test: Inhibition of anchorage-independent tumor cell growth, HT1080. The test is classed as cell-based. The following applies: Homo sapiens, HT-1080, 336 h; HT1080, 14 days, soft agar. How it is done: as §1, §2
The test system of test [2] is H-ras farnesylation in H-ras (61L) transformed NIH3T3 fibroblasts. As to the kind of experiment: Inhibition of H-ras farnesylation in whole cells (Western blot). The following applies: Mus musculus, NIH3T3, 24 h, Table 2. It counts as cell-based, mouse. How it is done:
The ability of compounds of the invention to inhibit H-ras farnesylation and rap1 geranylgeranylation in whole cells was determined. H-ras (61L) transformed NIH3T3 fibroblasts were generously provided by C. Der, Univ. N. Carolina. These fibroblasts were treated for 24 h with 50 μM lovastatin (control) or the indicated concentrations of inhibitor. The cells were lysed in 1% NP-40, 5 mM Tris-HCl (pH 8.0), 5 mM EDTA, 0.1 mM N-tosyl-L-phenylalanine chloromethyl ketone, 0.1 mM N-tosyl-L-lysine chloromethyl ketone, and 1 mM phenylmethylsulfonyl fluoride. The lysate was centrifuged (15000×g, 5 min.) and the supernatant was used as a cell extract. […] After transfer to IMMOBILON P™ membrane (Millipore), the blots were probed with LA069 mouse monoclonal antibody to H-ras (Quality Biotech), or rabbit polyclonal antibody to rap1/Krev (Santa Cruz Biotechnology). All Western blots were developed using ECL chemiluminescent reagents (Amersham).
For orientation: In western blotting, separated proteins are transferred to a membrane and probed.

The next test addresses T1, FTase (Bos taurus, UniProt P29702+P49355).
T1 construct: bovine brain by inference from the cited Moores et al. 1991
As to the kind of experiment: Inhibition of FTase-mediated prenylation (in vitro prenylation assay). Particulars: Table 1; partially purified FTase, 3 μM recombinant H-ras, 440 nM [3H]FPP, 15 min 37° C. The test is classed as biochemical. The text has this:
(§3) Nanomolar concentrations of the indicated compounds were sufficient to inhibit farnesylation of ras proteins in vitro. For screening candidate compounds useful for the treatment of ras-associated tumors, the FTase assay is preferred. […] Substitutions which confer GGTase specificity as taught herein also produced potent inhibitors of GGTase.

The subject of the next test is T24. Kind of test: Inhibition of anchorage-independent tumor cell growth, T24. It counts as cell-based. Particulars: Homo sapiens, T-24, 336 h; T24, 14 days, soft agar. How it is done: as §1, §2
The test system of test [3] is H-ras (61L) transformed NIH3T3 fibroblast tumors. As to the kind of experiment: Inhibition of tumor xenograft in mice, Example D (PD331). The test is classed as in vivo, mouse. The following applies: for T/C (%) Volume / Tumor Volume: day 14. The protocol:
Cells were harvested from exponential-phase maintenance cultures (T-225 cm^2 culture flasks, Corning Inc., Corning, N.Y.) with trypsin-EDTA (GIBCO), centrifuged at 160 ×g for 5 min, washed once with 10 mL cold Hank's balanced salt solution (HBSS, GIBCO), and resuspended at a concentration of 1×10^6 cells/mL. Five week old female athymic nude mice were obtained from SLC (3371-8, Kotoummachi, Hamamatsu-shi, Shizuoka 431-11, Japan) and maintained under pathogen-free conditions. […] Inhibitor compound PD331 was suspended in saline containing 2% Tween-80 in a total injection volume of 0.2 mL. Two dosage concentrations were prepared, 0.3 mg/mouse or 1.0 mg/mouse. Compound PD331 was subcutaneously injected daily at the site of tumor cell implantation for 5 consecutive days, starting approximately 8 h after the implantation (day 0). The control group was injected with vehicle only. Body weight and tumor dimensions were measured at days 7, 10, and 14. Tumor volume was estimated by the following calculation: tumor volume =(0.5)(length×width×width). At day 14, each mouse was euthanized with CO2 (g), and each tumor was excised and weighed. The statistical significance was estimated by the Student's T-test.

The next test deals with Sw620. Kind of test: Inhibition of anchorage-independent tumor cell growth, Sw620. The test is classed as cell-based. Particulars: Homo sapiens, SW-620, 336 h; Sw620, 14 days, soft agar. The protocol: as §1, §2
The target in a further test is GGTase. As to the kind of experiment: Inhibition of GGTase-mediated prenylation (in vitro prenylation assay). The following applies: Table 1; partially purified GGTase, 5 μM recombinant H-ras (61L, CAIL), 1 μM [3H] geranylgeranyl diphosphate. It counts as biochemical.
Source text: as §3

Test [4] concerns H-ras (61L) transformed NIH3T3 fibroblast tumors. Kind of test: Inhibition of tumor xenograft in mice, Example E (PM061). It counts as in vivo, mouse. The following applies: for T/C (%) Volume / Tumor Volume: day 15. The protocol:
H-ras (61L) transformed NIH3T3 fibroblasts were grown in Dulbecco's modified Eagle's medium supplemented with 10% heat-inactivated calf serum. 100 U/mL penicillin, 100 μg/mL streptomycin, and 0.75 mg/mL G418 (GIBCO) and incubated at 37° C. in 5% CO2. Cells were harvested from exponential-phase maintenance cultures (T-225 cm^2 culture flasks, Corning Inc., Corning, N.Y.) with trypsin-EDTA (GIBCO), centrifuged at 160 ×g for 5 min, washed once with 10 mL cold Hank's balanced salt solution (HBSS, GIBCO), and resuspended at a concentration of 1×10^6 cells/mL.
Five week old female athymic nude mice were obtained from SLC (3371-8, Kotoummachi, Hamamatsu-shi, Shizuoka 431-11, Japan) and maintained under pathogen-free conditions. The mice were subcutaneously injected in the lateral flank with 1×10^5 H-ras transformed cells/mouse.
Inhibitor compound PD331 was suspended in saline containing 2% Tween-80 in a total injection volume of 0.2 mL. Two dosage concentrations were prepared, 0.3 mg/mouse or 1.0 mg/mouse. Compound PD331 was subcutaneously injected daily at the site of tumor cell implantation for 5 consecutive days, starting approximately 8 h after the implantation (day 0). The control group was injected with vehicle only. Body weight and tumor dimensions were measured at days 7, 10, and 14. Tumor volume was estimated by the following calculation: tumor volume =(0.5)(length×width×width). At day 14, each mouse was euthanized with CO2 (g), and each tumor was excised and weighed. The statistical significance was estimated by the Student's T-test.
The same in vivo experiment as Example D above was performed, using compound PM061. Instead of 0.3 mg/mouse and 1.0 mg/mouse, three injection concentrations were prepared (0.5 mg/mouse, 1.0 mg/mouse, and 2.0 mg/mouse). Body weight and tumor size were measured at days 7, 10, and 15. Tumors were excised at day 15.

The mark [5] stands for this setting: 0.3 mg/mouse s.c. daily for 5 days.
[6] abbreviates: 1.0 mg/mouse s.c. daily for 5 days.

One may read the pIC50 as the negative decadic logarithm of the IC50, by convention in mol/L. Turning to `CSCC[C@H](NC(=O)C(/C=C\[C@@H](/C=C/[C@@H](N)CS)C(C)C)Cc1ccccc1)C(=O)O` (stereo partly shown) [PD331], the pIC50 in [1] was 6.22; with MIApaca-2, 4.72; with HT1080 it was 5.74; in test [2], 6.40; on FTase, 7.96; with T24, 6.52. Further, the results for the pIC50 in the test on Sw620 and at GGTase were 4.66 and 7.89, respectively. Also, the “T/C (%) Volume” value worked out at 53.3% in test [3] (setting [5]) and 16.5% in [3] (setting [6]). The Tumor Volume in test [3] (setting [5]) worked out at 871.28 ± 526.90 µL; in test [3] (setting [6]) it was 269.55 ± 292.95 µL. Besides, the “weight and volume of tumors versus control group” value in [3] (every concentration) is “both the weight and the volume of the tumors from the treated group were less than the weight and volume of tumors from the control group”. For the same compound, the “effect on H-ras tumor growth in mice” value in [3] (mouse, in vivo) was “has a significant effect on H-ras tumor growth in mice; also recorded: effectively inhibited the growth of ras-associated tumors in mice”.
`CSCC[C@H](NC(=O)c1cc(C/C=C/C(N)CS)ccc1-c1ccccc1)C(=O)O` (stereo partly shown) [PM061]: the pIC50 in [2] was 5.32; on FTase it was 8.15; on GGTase, 6.84. The “T/C (%) Volume” value in [4] (0.5 mg/mouse s.c.) came out at 90.3%; in test [4] (1.0 mg/mouse s.c.), 101.8%; in test [4] (2.0 mg/mouse s.c.), 53.6%. In addition, the “Tumor Volume” value in [4] (0.5 mg/mouse s.c.) worked out at 2360.4 ± 645.0 µL; in test [4] (1.0 mg/mouse s.c.), 2660.3 ± 756.4 µL; in [4] (2.0 mg/mouse s.c.), 1400.6 ± 703.2 µL. Moreover, the “tumor volume as % of the tumor volume in the control mouse” value in [4] (injection of 2.0 mg) stood at 53.2%. Moreover, the “effect on H-ras tumor growth in mice” value in test [4] (mouse, in vivo) is reported as “had a significant effect on H-ras tumor growth in mice; also recorded: effectively inhibited the growth of ras-associated tumors in mice”.
`COc1ccccc1-c1ccc(C/C=C/C(N)CS)cc1C(=O)N[C@@H](CCSC)C(=O)O` (stereo partly shown) [PM142]: the values for the pIC50 (in test [2]; on FTase; at GGTase) were 5.96, 8.10 and 7.14, respectively.
`CCOC(=O)[C@H](CCSC)NC(=O)c1cc(C/C=C/C(N)CS)ccc1-c1ccccc1` (stereo partly shown) [PM151]: the values for the pIC50 (in [2]; on FTase; on GGTase) were 5.54, 6.22 and 5.41, respectively.
On to `NC(/C=C/Cc1ccc(-c2ccsc2)c(C(=O)N[C@@H](Cc2cccs2)C(=O)O)c1)CS` (stereo partly shown) [PM152], for which the results for the pIC50 (in test [2]; on FTase; on GGTase) were 4.39, 7.42 and 6.57, respectively.
Take `CS(=O)(=O)CC[C@H](NC(=O)c1cc(C/C=C/C(N)CS)ccc1-c1ccccc1)C(=O)O` (stereo partly shown) [PM161]: the pIC50 in [2] is 4.72; on FTase, 9.05; at GGTase, 5.67.
For `CSCC[C@H](NC(=O)c1cc(CCCC(N)CS)ccc1-c1ccsc1)C(=O)O` (stereo partly shown) [PM162], in that order: 4.88, 8.74 and 6.92.
For `NC(/C=C/Cc1ccc(-c2ccccc2)c(C(=O)N[C@@H](Cc2ccccc2)C(=O)O)c1)CS` (stereo partly shown) [PM172], in that order: below 4.00, 7.25 and 6.91.
For `CSCC[C@H](NC(=O)c1cc(C/C=C/C(N)CS)ccc1-c1cccs1)C(=O)O` (stereo partly shown) [PM182], the pIC50 was 5.57 in test [2], 7.77 on FTase and 6.28 at GGTase.
For `COC(=O)[C@H](CCSC)NC(=O)c1cc(C/C=C/C(N)CS)ccc1-c1ccsc1` (stereo partly shown) [PM192], the negative logarithm of the IC50 (pIC50) in [2] is 6.64; on FTase, 6.55; on GGTase, 5.42.
For the compound `COC(=O)[C@H](CCS(C)(=O)=O)NC(=O)c1cc(C/C=C/C(N)CS)ccc1-c1ccsc1` (stereo partly shown) [PM202], the negative logarithm of the IC50 (pIC50) in test [2] is 5.92; at FTase it was 7.80; on GGTase, 5.13.
As to `CCc1ccc(C/C=C/C(N)CS)cc1C(=O)N[C@@H](CCSC)C(=O)OC` (stereo partly shown) [PM212], the pIC50 in test [2] is 7.35; at FTase, 7.25; on GGTase, 5.74.
In the case of `COC(=O)[C@H](CCSC)NC(=O)C(Cc1ccccc1)SC[C@@H](/C=C/C(N)CS)C(C)C` (stereo partly shown) [PT011], the pIC50 in test [2] is 7.64; at FTase, 7.37; on GGTase it was 6.20.
